Reference: patent US20240294697A1, “AMPHIPHILIC OLIGOMERS AND SELF-ASSEMBLING HYDROGELS FORMED THEREFROM” (THE GOVERNING COUNCIL OF THE UNIVERSITY OF TORONTO, priority 2021, published 2024)

System: primary chondrocytes
Settings: H2O2 between 25 and 100 μM
Description: To prepare for this experiment, specific concentrations of H2O2 and ascorbic acid were prepared by testing a range of concentrations and incubating at 37° C. On the following day, 200 μL of each condition was treated to pre-seeded primary chondrocytes at passage 6 and evaluated for its metabolic activity as per below. Each condition was performed in triplicate.
Cryopreserved Human Chondrocytes (HCH) were purchased from PromoCell at passage 2 (P2). HCH were cultured in proprietary chondrocyte growth medium and supplemented with 10% Growth Medium Supplement by PromoCell at 37° C. and 5% CO2. The medium was changed every 2-3 days until the cells achieved 80% confluence. Once the cells reached confluence, the chondrocytes were treated with the DetachKit (purchased by PromoCell). […]
Following the 24-hour exposure of the leachable material and controls, the treated media was aspirated and 110 μL of a 10% solution (v/v) of WST-1 reagent in media was added to each well and incubated for two hours to ensure that all viable cells converted the tetrazolium salt to formazan. The absorbance of formazan was read on a Plate Reader (Perkin Elmer) at 450 nm. The absorbance values of all treatments and the positive control were normalized to cells treated with media.

SMILES: OO [H2O2, hydrogen peroxide]
- concentrations evidencing cell toxicity: above 50 μM
- concentrations resulting in metabolically active cells: below 50 μM
